Source: patent publication US8178089B2, “Neuronal progenitors from feeder-free human embryonic stem cell culture” (The University of Georgia Research Foundation, Inc, priority 2004, dated 2012)

Columns and labels:
[1] = test system: voltage-gated sodium channels; assay: Intracellular calcium measurement (Fluo-3AM, FLIPR) in human neuroprogenitor cells; assay type: cell-based; conditions: 30 μM veratridine, 96-well plates
Protocol: In this experiment, human neuroprogenitor cells were seeded in 96-well plates and incubated with dye loading medium containing 2 μM Fluo-3AM and 0.04% pluronic acid in Locke's buffer. After 45 minutes of incubation, the neuroprogenitor cells were gently washed three times in fresh Locke's buffer. Following the final wash, 150 μl of Locke's buffer was added to each well and the plate was transferred to the FLIPR® incubation chamber (Molecular Devices). […] These cells can therefore be used to determine the effect of an antagonist or agonist on calcium uptake or whether an agent is a likely antagonist or agonist of calcium uptake.

NEP cells [2] = assay: Proliferation of subcultured NEP cells (nuclei count by flow cytometry, day 14); assay type: cell-based, human; conditions: for proliferation rate: long term cultured NEP cells (6 mo)
Protocol: (§1) Effect of LIF and bFGF on subcultured NEP cells. Two groups of cultured NEP cells, one less than 1 month (<1 mo) and the other approximately 6 months (6 mo) in NB27 (described in previous section), were dissociated by 0.05% trypsin to obtain a single-cell suspension, and 50,000 cells/cm^2 were plated in one of the subculture media on polyornithine and laminin-coated dishes. Two concentrations of two growth factors (LIF; 0 or 10 ng/ml and bFGF; 0 or 20 ng/ml) in NB27, were applied to cells. Cells were harvested from each group and nuclei were counted by flow cytometry on days 1 and 14. Plating efficiency rate was calculated as the ratio of cells harvested to cells plated on day 1. Proliferation was measured on day 14. For each replicate, counted nuclei from the four treatment groups were added to obtain an overall total. The total cell number within each group was then divided by the overall total cell number and expressed as a percent.

NEP cells [3] = assay: Plating efficiency of subcultured NEP cells (day 1); assay type: cell-based, human; conditions: for plating efficiency versus control: NEP after 6 months in LIF supplemented culture; for effect on plating efficiency / plating efficiency: early NEP cells (1 mo)
Protocol: as §1

OLIG2 expression = assay: OLIG2 gene expression by real time RT-PCR in NEP; assay type: cell-based; conditions: human NEP, FIG. 2A
Excerpt: The motor neuron progenitor gene, OLIG2, is expressed early in motor neuron induction. Novitch, et al., Neuron, 31(5), 773-89 (2001). […] Subsequently, we examined expression of the motor neuron gene HLBX9 to investigate the effect of Shh and RA on motor neuron differentiation. Based on the OLIG2 results, bFGF was included at the time of RA or RA plus Shh exposure. The combination of RA and bFGF produced a 2·20 fold increased in HLBX9 expression level, and combining bFGF, Shh and RA increased HLBX9 expression 8·49 fold higher than bFGF alone in human NEP (FIG. 2B).

| Compound | elevation of intracellular [Ca2+] [1] | effect on proliferation of NEP cells (NEP cells [2]; early NEP cells (1 mo), in presence or absence of bFGF) | proliferation rate (NEP cells [2]) | plating efficiency versus control (NEP cells [3]) | effect on plating efficiency (NEP cells [3]) | plating efficiency (NEP cells [3]) | OLIG2 expression change (OLIG2 expression) | cell proliferation (group cell number as percent of overall total) (NEP cells [2]; early NEP cells (1 mo), day 14, bFGF 20 ng/ml, control 8.9%) [%] |
| --- | --- | --- | --- | --- | --- | --- | --- | --- |
| COc1ccc(C(=O)O[C@H]2CC[C@@]3(C)[C@@H]4CC[C@H]5[C@]6(O)C[C@H](O)[C@@]7(O)[C@@H](CN8C[C@@H](C)CC[C@H]8[C@@]7(C)O)[C@]6(O)C[C@@]53O[C@]24O)cc1OC [veratridine] | ~145 % of control | – | – | – | – | – | – | – |
| LIF: Leukemia Inhibitory Factor, growth factor | – | no effect | increased proliferation rate | higher plating efficiency than the control | no effect | about 50% | – | – |
| bFGF: basic fibroblast growth factor, growth factor | – | – | increased proliferation rate | higher plating efficiency than the control | no effect | about 50% | significantly increased | 38.5 |
